Experimental data: patent publication US7135466B2 (Kirin Beer Kabushiki Kaisha, priority 1999, dated 2006)

target: T1, c-kit (Homo sapiens, UniProt P10721); assay: Inhibitory activity against c-kit autophosphorylation (MO7e cells, h-SCF); type: cell-based; conditions: MO7e cells, 50 ng/ml h-SCF; read-out: c-kit IC50
T1 construct: MO7e (human megakaryocytic leukemia cell line) which had been arrested for 20 hr; endogenous in cells; host or cells: MO7e human megakaryocytic leukemia cell line
Protocol: Inhibitory Activity Against c-kit Autophosphorylation
MO7e (human megakaryocytic leukemia cell line) which had been arrested for 20 hr was seeded into 96 well plates at an amount of 2×10^5 per well. A solution of a test compound in DMSO was added, and a reaction was then allowed to proceed for one hr. Thereafter, the cells were stimulated by 50 ng/ml of h-SCF for 5 min, followed by replacement with lysate buffer to solubilize the cells.
Next, the solubilized cell sap was transferred to a 96-well plate with an anti-phosphotyrosine antibody (PY-20) previously immobilized thereon, and a reaction was allowed to proceed. Thereafter, the cells were reacted with an anti-c-kit antibody (c-19, Santa Cruz) as a primary antibody and were labelled with GAR (anti-rabbit IgG, horseradish peroxidase, Amersham) as a secondary antibody. Color development was then carried out in a peroxidase color development kit (Sumitomo Bakelite Co., Ltd.), and the absorbance was measured at a wavelength of 450 nm.

T1 sequence (P10721 26-976): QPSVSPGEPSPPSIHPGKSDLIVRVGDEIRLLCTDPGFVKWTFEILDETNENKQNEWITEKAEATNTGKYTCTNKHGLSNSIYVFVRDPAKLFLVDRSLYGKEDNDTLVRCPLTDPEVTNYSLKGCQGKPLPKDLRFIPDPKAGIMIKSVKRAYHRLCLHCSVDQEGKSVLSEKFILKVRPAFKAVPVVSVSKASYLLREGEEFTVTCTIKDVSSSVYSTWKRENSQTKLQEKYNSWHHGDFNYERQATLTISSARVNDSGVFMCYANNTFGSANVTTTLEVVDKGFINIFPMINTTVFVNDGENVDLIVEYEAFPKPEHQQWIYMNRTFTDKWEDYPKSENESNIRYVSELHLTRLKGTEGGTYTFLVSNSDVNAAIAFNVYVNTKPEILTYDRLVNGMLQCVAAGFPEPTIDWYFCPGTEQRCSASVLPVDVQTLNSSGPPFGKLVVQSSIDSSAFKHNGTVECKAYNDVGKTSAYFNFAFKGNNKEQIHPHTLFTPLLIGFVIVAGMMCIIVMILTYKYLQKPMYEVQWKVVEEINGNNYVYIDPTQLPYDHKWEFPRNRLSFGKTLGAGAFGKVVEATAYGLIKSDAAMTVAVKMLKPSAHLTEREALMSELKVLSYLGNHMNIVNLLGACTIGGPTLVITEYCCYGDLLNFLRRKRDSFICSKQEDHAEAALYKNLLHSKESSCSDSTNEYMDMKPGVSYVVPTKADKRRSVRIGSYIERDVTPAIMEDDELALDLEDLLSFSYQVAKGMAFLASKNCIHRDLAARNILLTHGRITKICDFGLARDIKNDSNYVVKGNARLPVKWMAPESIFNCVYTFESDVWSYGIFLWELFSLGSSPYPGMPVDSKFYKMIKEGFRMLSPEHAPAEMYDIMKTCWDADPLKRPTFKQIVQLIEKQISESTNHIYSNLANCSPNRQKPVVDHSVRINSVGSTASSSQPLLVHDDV

For `COc1cc2nccc(Oc3ccc(NC(=S)NC(=O)Cc4ccccc4F)cc3)c2cc1OC` [Example 729, N-{4-[(6,7-Dimethoxy-4-quinolyl)oxy]phenyl}-N′-[2-(2-fluorophenyl)acetyl]thiourea], which IC50 is on record?
Its IC50 is 302 nM.

How did the IC50 turn out when `COc1cc2nccc(Oc3ccc(NC(=O)NNc4ccccc4)c(F)c3)c2cc1OC` [Example 612, N-{4-[(6,7-Dimethoxy-4-quinolyl)oxy]-2-fluorophenyl}-N′-(phenylamino)urea] was run?
The IC50 was 173 nM.

How did the IC50 turn out when `COc1cccc(NC(=O)COc2ccc(Oc3ccnc4cc(OC)c(OC)cc34)cc2)c1` [Example 778, N1-(3-Methoxyphenyl)-2-{4-[(6,7-dimethoxy-4-quinolyl)oxy]phenoxy}acetamide] was run?
The IC50 was 84 nM.

same assay, conditions: MO7e cells, h-SCF 50 ng/ml; read-out: c-kit IC50

With `COc1cc2ncnc(Oc3ccc(NC(=O)OCc4ccccc4)cc3)c2cc1OC` [Example 220, Benzyl N-{4-[(6,7-dimethoxy-4-quinazolinyl)oxy]phenyl}carbamate] as the compound, how does the IC50 read?
Its IC50 is 77 nM.

Which IC50 does the source give for `COc1cc2nccc(Oc3ccc(NC(=O)Oc4ccccc4)c(C)c3C)c2cc1OC` [Example 217, Phenyl N-{4-[(6,7-dimethoxy-4-quinolyl)oxy]-2,3-dimethylphenyl}carbamate] here?
Its IC50 is 39 nM.

Which IC50 does the source give for “4-Methylbenzyl {4-[(6,7-dimethoxy-4-quinazolinyl)oxy]anilino}methanethioate [Example 110]” here?
Its IC50 is 110 nM.

same assay, conditions: MO7e cells, h-SCF stimulation; read-out: c-kit IC50

`COc1cc2nccc(Oc3ccc(NC(=S)NC(=O)c4ccc([N+](=O)[O-])cc4)cc3F)c2cc1OC` [Example 975, N-{4-[(6,7-Dimethoxy-4-quinolyl)oxy]-3-fluorophenyl}-N′-(4-nitrobenzoyl)thiourea] was tested. Which IC50 did it give?
Its IC50 is 290 nM.

With `COc1cc2nccc(Oc3ccc(SCCOc4cccc(C)c4)cc3)c2cc1OC` [Example 823, 6,7-Dimethoxy-4-(4-{[2-(3-methylphenoxy)ethyl]sulfanyl}phenoxy)quinoline] as the compound, how does the IC50 read?
Its IC50 is 236 nM.

With `COc1cc2nccc(Oc3ccc(NCCOc4ccccc4)cc3)c2cc1OC` [Example 869, N-{4-[(6,7-Dimethoxy-4-quinolyl)oxy]phenyl}-N-(2-phenoxyethyl)amine] as the compound, how does the IC50 read?
The IC50 was 80 nM.

`COc1cc2nccc(Oc3ccc(NCCOc4ccc(Cl)cc4)cc3)c2cc1OC` [Example 859, N-[2-(4-Chlorophenoxy)ethyl]-N-{4-[(6,7-dimethoxy-4-quinolyl)oxy]phenyl}amine] was tested. Which IC50 did it give?
Its IC50 is 130 nM.

How did the IC50 turn out when `COc1cc2ncnc(Oc3ccc(SCCOc4ccccc4F)cc3)c2cc1OC` [Example 849, 4-(4-{[2-(2-Fluorophenoxy)ethyl]sulfanyl}phenoxy)-6,7-dimethoxyquinazoline] was run?
The IC50 was 760 nM.

With `COc1cc2nccc(Oc3ccc(NC(=S)NC(=O)c4ccccc4)cc3Cl)c2cc1OC` [Example 918, N-Benzoyl-N′-{3-chloro-4-[(6,7-dimethoxy-4-quinolyl)oxy]phenyl}thiourea] as the compound, how does the IC50 read?
Its IC50 is 552 nM.

Which IC50 does the source give for `COc1cccc(C(=O)NC(=S)Nc2ccc(Oc3ncnc4cc(OC)c(OC)cc34)cc2)c1` [Example 956, N-{4-[(6,7-Dimethoxy-4-quinazolinyl)oxy]phenyl}-N′-(3-methoxybenzoyl)thiourea] here?
The IC50 was 326 nM.

For `COc1cc2nccc(Oc3ccc(NCCOc4cc(Cl)ccc4Cl)cc3)c2cc1OC` [Example 865, N-[2-(2,5-Dichlorophenoxy)ethyl]-N-{4-[(6,7-dimethoxy-4-quinolyl)oxy]phenyl}amine], which IC50 is on record?
The IC50 was 121 nM.

For `COc1ccc(OCCNc2ccc(Oc3ccnc4cc(OC)c(OC)cc34)cc2)cc1` [Example 863, N-{4-[(6,7-Dimethoxy-4-quinolyl)oxy]phenyl}-N-[2-(4-methoxyphenoxy)ethyl]amine], which IC50 is on record?
Its IC50 is 31 nM.

`COc1cc2nccc(Oc3ccc(NCCOc4ccc(C)cc4)cc3)c2cc1OC` [Example 870, N-{4-[(6,7-Dimethoxy-4-quinolyl)oxy]phenyl}-N-[2-(4-methylphenoxy)ethyl]amine] was tested. Which IC50 did it give?
The IC50 was 48 nM.

Which IC50 does the source give for `COc1cc2nccc(Oc3ccc(NC(=S)NC(=O)c4cccc(Br)c4)cc3Cl)c2cc1OC` [Example 952, N-(3-Bromobenzoyl)-N′-{3-chloro-4-[(6,7-dimethoxy-4-quinolyl)oxy]phenyl}thiourea] here?
The IC50 was 317 nM.

With `COc1cccc(OCCSc2ccc(Oc3ccnc4cc(OC)c(OC)cc34)cc2)c1` [Example 812, 6,7-Dimethoxy-4-(4-{[2-(3-methoxyphenoxy)ethyl]sulfanyl}phenoxy)quinoline] as the compound, how does the IC50 read?
Its IC50 is 326 nM.

For `COc1cc2nccc(Oc3ccc(NC(=S)NC(=O)c4cccc(C)c4)cc3Cl)c2cc1OC` [Example 947, N-{3-Chloro-4-[(67-dimethoxy-4-quinolyl)oxy]phenyl}-N′-(3-methylbenzoyl)thiourea], which IC50 is on record?
Its IC50 is 375 nM.

`COc1cc2nccc(Oc3ccc(NC(=S)NC(=O)c4ccc(F)cc4)c(F)c3)c2cc1OC` [Example 966, N-{4-[(6,7-Dimethoxy-4-quinolyl)oxy]-2-fluorophenyl}-N′-(4-fluorobenzoyl)thiourea] was tested. Which IC50 did it give?
Its IC50 is 233 nM.

For `COc1cc2ncnc(Oc3ccc(SCCCCOc4ccccc4F)cc3)c2cc1OC` [Example 848, 4-(4-{[4-(2-Fluorophenoxy)butyl]sulfanyl}phenoxy)-6,7-dimethoxyquinazoline], which IC50 is on record?
The IC50 was 943 nM.

Which IC50 does the source give for `COc1cc2nccc(Oc3ccc(NC(=S)NC(=O)c4ccc(Cl)cc4)cc3C)c2cc1OC` [Example 1111, N-(4-Chlorobenzoyl)-N′-{4-[(6,7-dimethoxy-4-quinolyl)oxy]-3-methylphenyl}thiourea] here?
The IC50 was 405 nM.

Which IC50 does the source give for `COc1cc2ncnc(Oc3ccc(NCCOc4ccccc4)cc3)c2cc1OC` [Example 873, N-{4-[(6,7-Dimethoxy-4-quinazolinyl)oxy]phenyl}-N-(2-phenoxyethyl)amine] here?
Its IC50 is 69 nM.

same assay, conditions: Mo7e, figure in parentheses in −( ); at 1000 nM

How did the inhibition at 1 µM turn out when `COc1cc2nccc(Oc3ccc(NC(=S)NC(=O)c4ccccc4OC)cc3F)c2cc1OC` [Example 916, N-{4-[(6,7-Dimethoxy-4-quinolyl)oxy]-3-fluorophenyl}-N′-(2-methoxybenzoyl)thiourea] was run?
The inhibition at 1 µM was 16%.

`COc1ccc(C(=O)NC(=S)Nc2ccc(Oc3ccnc4cc(OC)c(OC)cc34)c(Cl)c2)c(OC)c1` [Example 1117, N-{3-Chloro-4-[(6,7-dimethoxy-4-quinolyl)oxy]phenyl}-N′-(2,4-dimethoxybenzoyl)thiourea] was tested. Which inhibition at 1 µM did it give?
The inhibition at 1 µM was 31%.

For `COc1cc2nccc(Oc3ccc(NC(=S)NC(=O)c4ccccc4OC)c(F)c3)c2cc1OC` [Example 909, N-{4-[(6,7-Dimethoxy-4-quinolyl)oxy]-2-fluorophenyl}-N′-(2-methoxybenzoyl)thiourea], which inhibition at 1 µM is on record?
The inhibition at 1 µM was 32%.

`COc1ccc(C(=O)NC(=S)Nc2ccc(Oc3ccnc4cc(OC)c(OC)cc34)cc2)c(OC)c1` [Example 1119, N-(2,4-Dimethoxybenzoyl)-N′-{4-[(6,7-dimethoxy-4-quinolyl)oxy]phenyl}thiourea] was tested. Which inhibition at 1 µM did it give?
The inhibition at 1 µM was 27%.

Which inhibition at 1 µM does the source give for `COc1cc2nccc(Oc3ccc(NC(=S)NC(=O)c4ccc(F)cc4)c(C)c3)c2cc1OC` [Example 1093, N-{4-[(6,7-Dimethoxy-4-quinolyl)oxy]-2-methylphenyl}-N′-(4-fluorobenzoyl)thiourea] here?
The inhibition at 1 µM was 32%.

`COc1cc2nccc(Oc3ccc(NC(=S)NC(=O)c4ccc([N+](=O)[O-])cc4)c(F)c3)c2cc1OC` [Example 968, N-{4-[(6,7-Dimethoxy-4-quinolyl)oxy]-2-fluorophenyl}-N′-(4-nitrobenzoyl)thiourea] was tested. Which inhibition at 1 µM did it give?
Its inhibition at 1 µM is 27%.

Which inhibition at 1 µM does the source give for `COc1cc2nccc(Oc3ccc(NC(=S)NC(=O)c4ccc(Cl)cc4)c(C)c3C)c2cc1OC` [Example 1082, N-(4-Chlorobenzoyl)-N′-{4-[(6,7dimethoxy-4-quinolyl)oxy]-2,3-dimethylphenyl}thiourea] here?
The inhibition at 1 µM was 15%.

Which inhibition at 1 µM does the source give for `COc1cc2nccc(Oc3ccc(NC(=S)NC(=O)c4ccccc4Cl)c(C)c3)c2cc1OC` [Example 1097, N-(2-Chlorobenzoyl)-N′-{4-[(6,7-dimethoxy-4-quinolyl)oxy]-2-methylphenyl}thiourea] here?
Its inhibition at 1 µM is 8%.

How did the inhibition at 1 µM turn out when `COc1cc2nccc(Oc3ccc(NC(=S)NC(=O)c4ccccc4C)c(C)c3C)c2cc1OC` [Example 1085, N-{4-[(6,7-Dimethoxy-4-quinolyl)oxy]-2,3-dimethylphenyl}-N′-(2-methylbenzoyl)thiourea] was run?
Its inhibition at 1 µM is 25%.

Which inhibition at 1 µM does the source give for `COc1cc2nccc(Oc3ccc(NC(=S)NC(=O)c4cccc(F)c4)c(C)c3)c2cc1OC` [Example 1091, N-{4-[(6,7-Dimethoxy-4-quinolyl)oxy]-2-methylphenyl}-N′-(3-fluorobenzoyl)thiourea] here?
Its inhibition at 1 µM is 39%.

`COc1cc2ncnc(Oc3ccc(NC(=S)NC(=O)c4ccc(Cl)cc4)cc3)c2cc1OC` [Example 985, N-(4-Chlorobenzoyl)-N′-{4-[(6,7-dimethoxy-4-quinazolinyl)oxy]phenyl}thiourea] was tested. Which inhibition at 1 µM did it give?
The inhibition at 1 µM was 31%.

For `COc1cc2nccc(Oc3ccc(NC(=S)NC(=O)c4cccc(Cl)c4)c(C)c3C)c2cc1OC` [Example 1083, N-(3-Chlorobenzoyl)-N′-{4-[(6,7-dimethoxy-4-quinolyl)oxy]-2,3-dimethylphenyl}thiourea], which inhibition at 1 µM is on record?
Its inhibition at 1 µM is 30%.

same assay, conditions: Mo7e, figure within parentheses in −( ) or >1000( ); at 1000 nM

`CCCCC(CCCC)OC(=O)Nc1ccc(Oc2ncnc3cc(OC)c(OC)cc23)cc1[N+](=O)[O-]` [Example 508, 1-Butylpentyl N-{4-[(6,7-dimethoxy-4-quinazolinyl)oxy]-2-nitrophenyl}carbamate] was tested. Which inhibition at 1 µM did it give?
The inhibition at 1 µM was 28%.

How did the inhibition at 1 µM turn out when `CCN(CC)CCCNC(=S)Nc1ccc(Oc2ncnc3cc(OC)c(OC)cc23)cc1` [Example 531, N-{4-[(6,7-Dimethoxy-4-quinazolinyl)oxy]phenyl}-N′-(3-diethylaminopropyl)thiourea] was run?
The inhibition at 1 µM was 31%.
